Test results taken from ChEMBL document CHEMBL4138294, “Cybastacines A and B: Antibiotic Sesterterpenes from a Nostoc sp. Cyanobacterium” (2018).

Legend:
Format in all cases: functional
[1] = tested on: Mycobacteroides abscessus; assay: Antibacterial activity against Mycobacterium abscessus clinical isolate by CLSI M07-A9 protocol based assay
[2] = tested on: Nocardia carnea; assay: Antibacterial activity against Nocardia carnea clinical isolate by CLSI M07-A9 protocol based assay
[3] = tested on: Nocardia cyriacigeorgica; assay: Antibacterial activity against Nocardia cyriacigeorgica clinical isolate by CLSI M07-A9 protocol based assay
[4] = tested on: Tsukamurella pulmonis; assay: Antibacterial activity against Tsukamurella pulmonis clinical isolate by CLSI M07-A9 protocol based assay
[5] = tested on: Streptococcus pyogenes; assay: Antibacterial activity against Streptococcus pyogenes clinical isolate by CLSI M07-A9 protocol based assay
[6] = tested on: Enterococcus faecalis; assay: Antibacterial activity against Enterococcus faecalis clinical isolate by CLSI M07-A9 protocol based assay
[7] = tested on: Enterococcus faecium; assay: Antibacterial activity against Enterococcus faecium clinical isolate by CLSI M07-A9 protocol based assay
[8] = tested on: Staphylococcus aureus; assay: Antibacterial activity against Staphylococcus aureus clinical isolate by CLSI M07-A9 protocol based assay
[9] = tested on: Staphylococcus epidermidis; assay: Antibacterial activity against Staphylococcus epidermidis clinical isolate by CLSI M07-A9 protocol based assay

Row | MIC [1] | MIC [2] | MIC [3] | MIC [4] | MIC [5] | MIC [6] | MIC [7] | MIC [8] | MIC [9] | SMILES
1 | ≤ 16 µg/mL | ≤ 16 µg/mL | ≤ 16 µg/mL | ≤ 8 µg/mL | ≤ 32 µg/mL | ≤ 32 µg/mL | ≤ 32 µg/mL | ≤ 32 µg/mL | ≤ 32 µg/mL | CC1(C)CCC[C@]2(C)C3=C(CC[C@@H]12)[C@@]1(C)CC[C@@]2(C)NC(=N)NC[C@@H]2[C@@]1(C)C[C@H]3O
2 | ≤ 4 µg/mL | ≤ 4 µg/mL | ≤ 4 µg/mL | ≤ 2 µg/mL | ≤ 4 µg/mL | ≤ 4 µg/mL | ≤ 4 µg/mL | ≤ 4 µg/mL | ≤ 4 µg/mL | CC1(C)CCC[C@]2(C)[C@@H]3C(=CC[C@@H]12)[C@@]1(C)CC[C@@]2(C)NC(=N)NC[C@@H]2[C@@]1(C)C[C@H]3O
3 | ≤ 8 µg/mL | ≤ 8 µg/mL | ≤ 8 µg/mL | ≤ 8 µg/mL |  |  |  |  |  | C[C@@H](O)[C@H]1C(=O)N2C(C(=O)O)=C(SCCNC=N)C[C@H]12 [IMIPENEM ANHYDROUS]

Row | SMILES | MIC [1] | MIC [2] | MIC [3] | MIC [4] | MIC [5] | MIC [6] | MIC [7] | MIC [8] | MIC [9]
4 | CN[C@H](CC(C)C)C(=O)N[C@H]1C(=O)N[C@@H](CC(N)=O)C(=O)N[C@H]2C(=O)N[C@H]3C(=O)N[C@H](C(=O)N[C@H](C(=O)O)c4cc(O)cc(O)c4-c4cc3ccc4O)[C@H](O)c3ccc(c(Cl)c3)Oc3cc2cc(c3O[C@@H]2O[C@H](CO)[C@@H](O)[C@H](O)[C@H]2O[C@H]2C[C@](C)(N)[C@H](O)[C@H](C)O2)Oc2ccc(cc2Cl)[C@H]1O [VANCOMYCIN] |  |  |  |  | ≤ 16 µg/mL | ≤ 8 µg/mL | ≤ 8 µg/mL | ≤ 8 µg/mL | ≤ 8 µg/mL
